From US20250255882A1, “TREATMENT OF CARDIAC CONDITION RELATED COGNITIVE DYSFUNCTION” (The Trustees of Columbia University in the City of New York, priority 2024, published 2025)

What was measured:
[1] = system: MI mice; assay: long-term potentiation (fEPSPs) in hippocampal slices; type: in vivo, mouse; conditions: slices from treated MI mice; MI decreased LTP versus SHAM
Procedure: (§1) FIG. 4A is a schematic representation of a hippocampal brain slice for LTP experiments and the positioning of the stimulating and recording electrodes.
Field excitatory postsynaptic potentials (fEPSPs) were evaluated at the Schaffer collateral using a bipolar electrode placed at the CA3 and recording at the CA1 (FIG. 4A). […] Importantly, MI and treatment with the various compounds after MI had no effect on basal synaptic transmission determined by the input-output curves (I-O; P=0.5; FIG. 4D).

[2] = system: mouse model of HF (myocardial infarction, MI); assay: open field test and elevated plus maze (EPM) test; type: in vivo; conditions: MI mice, treated
Text: FIGS. 2A-2G illustrate a mouse model of heart failure (myocardial infarction) that is associated with cognitive dysfunction. […] One-way analysis of variance (ANOVA) was used to compare the difference between the six groups in FIGS. 2B, 2C, 2E and 2F. Tukey's test was used for multiple comparisons; two-way ANOVA was used in FIG. 2D. […] All statistical tests were two sided with the data derived from biologically independent samples.
Because of the complexity of the clinical manifestation of HF patients, the mouse model of HF (myocardial infarction, MI) was used with reduced ejection fraction to evaluate the mechanisms of CD. The open field test and elevated plus maze (EPM) test were used to evaluate the behavioral phenotypes, and spontaneous exploratory activity in the mice. In the open field test, mice were placed at the center of a chamber and allowed to explore for 6 min. […] In the EPM test, MI mice spent […] time in the open arms of the EPM (FIG. 2B) compared to SHAM (0.22±0.04 versus 0.14±0.02; P<0.05). […] As a control, the effects of a Rycal®, ARM036, was studied.

[3] = biological target: T1, hippocampal RyR2 (Mus musculus, UniProt E9Q401); assay: SDS-PAGE analysis of modified RyR2 and calstabin2 immunoprecipitated from hippocampal RyR2 complex; type: in vivo; conditions: hippocampi of treated MI mice
T1 construct: Hippocampal RyR2 was immunoprecipitated and immunoblotted to detect PTMs; from tissue; host or cells: mouse hippocampus (SHAM / MI mice, treated in vivo)
T1 sequence (E9Q401 whole entry): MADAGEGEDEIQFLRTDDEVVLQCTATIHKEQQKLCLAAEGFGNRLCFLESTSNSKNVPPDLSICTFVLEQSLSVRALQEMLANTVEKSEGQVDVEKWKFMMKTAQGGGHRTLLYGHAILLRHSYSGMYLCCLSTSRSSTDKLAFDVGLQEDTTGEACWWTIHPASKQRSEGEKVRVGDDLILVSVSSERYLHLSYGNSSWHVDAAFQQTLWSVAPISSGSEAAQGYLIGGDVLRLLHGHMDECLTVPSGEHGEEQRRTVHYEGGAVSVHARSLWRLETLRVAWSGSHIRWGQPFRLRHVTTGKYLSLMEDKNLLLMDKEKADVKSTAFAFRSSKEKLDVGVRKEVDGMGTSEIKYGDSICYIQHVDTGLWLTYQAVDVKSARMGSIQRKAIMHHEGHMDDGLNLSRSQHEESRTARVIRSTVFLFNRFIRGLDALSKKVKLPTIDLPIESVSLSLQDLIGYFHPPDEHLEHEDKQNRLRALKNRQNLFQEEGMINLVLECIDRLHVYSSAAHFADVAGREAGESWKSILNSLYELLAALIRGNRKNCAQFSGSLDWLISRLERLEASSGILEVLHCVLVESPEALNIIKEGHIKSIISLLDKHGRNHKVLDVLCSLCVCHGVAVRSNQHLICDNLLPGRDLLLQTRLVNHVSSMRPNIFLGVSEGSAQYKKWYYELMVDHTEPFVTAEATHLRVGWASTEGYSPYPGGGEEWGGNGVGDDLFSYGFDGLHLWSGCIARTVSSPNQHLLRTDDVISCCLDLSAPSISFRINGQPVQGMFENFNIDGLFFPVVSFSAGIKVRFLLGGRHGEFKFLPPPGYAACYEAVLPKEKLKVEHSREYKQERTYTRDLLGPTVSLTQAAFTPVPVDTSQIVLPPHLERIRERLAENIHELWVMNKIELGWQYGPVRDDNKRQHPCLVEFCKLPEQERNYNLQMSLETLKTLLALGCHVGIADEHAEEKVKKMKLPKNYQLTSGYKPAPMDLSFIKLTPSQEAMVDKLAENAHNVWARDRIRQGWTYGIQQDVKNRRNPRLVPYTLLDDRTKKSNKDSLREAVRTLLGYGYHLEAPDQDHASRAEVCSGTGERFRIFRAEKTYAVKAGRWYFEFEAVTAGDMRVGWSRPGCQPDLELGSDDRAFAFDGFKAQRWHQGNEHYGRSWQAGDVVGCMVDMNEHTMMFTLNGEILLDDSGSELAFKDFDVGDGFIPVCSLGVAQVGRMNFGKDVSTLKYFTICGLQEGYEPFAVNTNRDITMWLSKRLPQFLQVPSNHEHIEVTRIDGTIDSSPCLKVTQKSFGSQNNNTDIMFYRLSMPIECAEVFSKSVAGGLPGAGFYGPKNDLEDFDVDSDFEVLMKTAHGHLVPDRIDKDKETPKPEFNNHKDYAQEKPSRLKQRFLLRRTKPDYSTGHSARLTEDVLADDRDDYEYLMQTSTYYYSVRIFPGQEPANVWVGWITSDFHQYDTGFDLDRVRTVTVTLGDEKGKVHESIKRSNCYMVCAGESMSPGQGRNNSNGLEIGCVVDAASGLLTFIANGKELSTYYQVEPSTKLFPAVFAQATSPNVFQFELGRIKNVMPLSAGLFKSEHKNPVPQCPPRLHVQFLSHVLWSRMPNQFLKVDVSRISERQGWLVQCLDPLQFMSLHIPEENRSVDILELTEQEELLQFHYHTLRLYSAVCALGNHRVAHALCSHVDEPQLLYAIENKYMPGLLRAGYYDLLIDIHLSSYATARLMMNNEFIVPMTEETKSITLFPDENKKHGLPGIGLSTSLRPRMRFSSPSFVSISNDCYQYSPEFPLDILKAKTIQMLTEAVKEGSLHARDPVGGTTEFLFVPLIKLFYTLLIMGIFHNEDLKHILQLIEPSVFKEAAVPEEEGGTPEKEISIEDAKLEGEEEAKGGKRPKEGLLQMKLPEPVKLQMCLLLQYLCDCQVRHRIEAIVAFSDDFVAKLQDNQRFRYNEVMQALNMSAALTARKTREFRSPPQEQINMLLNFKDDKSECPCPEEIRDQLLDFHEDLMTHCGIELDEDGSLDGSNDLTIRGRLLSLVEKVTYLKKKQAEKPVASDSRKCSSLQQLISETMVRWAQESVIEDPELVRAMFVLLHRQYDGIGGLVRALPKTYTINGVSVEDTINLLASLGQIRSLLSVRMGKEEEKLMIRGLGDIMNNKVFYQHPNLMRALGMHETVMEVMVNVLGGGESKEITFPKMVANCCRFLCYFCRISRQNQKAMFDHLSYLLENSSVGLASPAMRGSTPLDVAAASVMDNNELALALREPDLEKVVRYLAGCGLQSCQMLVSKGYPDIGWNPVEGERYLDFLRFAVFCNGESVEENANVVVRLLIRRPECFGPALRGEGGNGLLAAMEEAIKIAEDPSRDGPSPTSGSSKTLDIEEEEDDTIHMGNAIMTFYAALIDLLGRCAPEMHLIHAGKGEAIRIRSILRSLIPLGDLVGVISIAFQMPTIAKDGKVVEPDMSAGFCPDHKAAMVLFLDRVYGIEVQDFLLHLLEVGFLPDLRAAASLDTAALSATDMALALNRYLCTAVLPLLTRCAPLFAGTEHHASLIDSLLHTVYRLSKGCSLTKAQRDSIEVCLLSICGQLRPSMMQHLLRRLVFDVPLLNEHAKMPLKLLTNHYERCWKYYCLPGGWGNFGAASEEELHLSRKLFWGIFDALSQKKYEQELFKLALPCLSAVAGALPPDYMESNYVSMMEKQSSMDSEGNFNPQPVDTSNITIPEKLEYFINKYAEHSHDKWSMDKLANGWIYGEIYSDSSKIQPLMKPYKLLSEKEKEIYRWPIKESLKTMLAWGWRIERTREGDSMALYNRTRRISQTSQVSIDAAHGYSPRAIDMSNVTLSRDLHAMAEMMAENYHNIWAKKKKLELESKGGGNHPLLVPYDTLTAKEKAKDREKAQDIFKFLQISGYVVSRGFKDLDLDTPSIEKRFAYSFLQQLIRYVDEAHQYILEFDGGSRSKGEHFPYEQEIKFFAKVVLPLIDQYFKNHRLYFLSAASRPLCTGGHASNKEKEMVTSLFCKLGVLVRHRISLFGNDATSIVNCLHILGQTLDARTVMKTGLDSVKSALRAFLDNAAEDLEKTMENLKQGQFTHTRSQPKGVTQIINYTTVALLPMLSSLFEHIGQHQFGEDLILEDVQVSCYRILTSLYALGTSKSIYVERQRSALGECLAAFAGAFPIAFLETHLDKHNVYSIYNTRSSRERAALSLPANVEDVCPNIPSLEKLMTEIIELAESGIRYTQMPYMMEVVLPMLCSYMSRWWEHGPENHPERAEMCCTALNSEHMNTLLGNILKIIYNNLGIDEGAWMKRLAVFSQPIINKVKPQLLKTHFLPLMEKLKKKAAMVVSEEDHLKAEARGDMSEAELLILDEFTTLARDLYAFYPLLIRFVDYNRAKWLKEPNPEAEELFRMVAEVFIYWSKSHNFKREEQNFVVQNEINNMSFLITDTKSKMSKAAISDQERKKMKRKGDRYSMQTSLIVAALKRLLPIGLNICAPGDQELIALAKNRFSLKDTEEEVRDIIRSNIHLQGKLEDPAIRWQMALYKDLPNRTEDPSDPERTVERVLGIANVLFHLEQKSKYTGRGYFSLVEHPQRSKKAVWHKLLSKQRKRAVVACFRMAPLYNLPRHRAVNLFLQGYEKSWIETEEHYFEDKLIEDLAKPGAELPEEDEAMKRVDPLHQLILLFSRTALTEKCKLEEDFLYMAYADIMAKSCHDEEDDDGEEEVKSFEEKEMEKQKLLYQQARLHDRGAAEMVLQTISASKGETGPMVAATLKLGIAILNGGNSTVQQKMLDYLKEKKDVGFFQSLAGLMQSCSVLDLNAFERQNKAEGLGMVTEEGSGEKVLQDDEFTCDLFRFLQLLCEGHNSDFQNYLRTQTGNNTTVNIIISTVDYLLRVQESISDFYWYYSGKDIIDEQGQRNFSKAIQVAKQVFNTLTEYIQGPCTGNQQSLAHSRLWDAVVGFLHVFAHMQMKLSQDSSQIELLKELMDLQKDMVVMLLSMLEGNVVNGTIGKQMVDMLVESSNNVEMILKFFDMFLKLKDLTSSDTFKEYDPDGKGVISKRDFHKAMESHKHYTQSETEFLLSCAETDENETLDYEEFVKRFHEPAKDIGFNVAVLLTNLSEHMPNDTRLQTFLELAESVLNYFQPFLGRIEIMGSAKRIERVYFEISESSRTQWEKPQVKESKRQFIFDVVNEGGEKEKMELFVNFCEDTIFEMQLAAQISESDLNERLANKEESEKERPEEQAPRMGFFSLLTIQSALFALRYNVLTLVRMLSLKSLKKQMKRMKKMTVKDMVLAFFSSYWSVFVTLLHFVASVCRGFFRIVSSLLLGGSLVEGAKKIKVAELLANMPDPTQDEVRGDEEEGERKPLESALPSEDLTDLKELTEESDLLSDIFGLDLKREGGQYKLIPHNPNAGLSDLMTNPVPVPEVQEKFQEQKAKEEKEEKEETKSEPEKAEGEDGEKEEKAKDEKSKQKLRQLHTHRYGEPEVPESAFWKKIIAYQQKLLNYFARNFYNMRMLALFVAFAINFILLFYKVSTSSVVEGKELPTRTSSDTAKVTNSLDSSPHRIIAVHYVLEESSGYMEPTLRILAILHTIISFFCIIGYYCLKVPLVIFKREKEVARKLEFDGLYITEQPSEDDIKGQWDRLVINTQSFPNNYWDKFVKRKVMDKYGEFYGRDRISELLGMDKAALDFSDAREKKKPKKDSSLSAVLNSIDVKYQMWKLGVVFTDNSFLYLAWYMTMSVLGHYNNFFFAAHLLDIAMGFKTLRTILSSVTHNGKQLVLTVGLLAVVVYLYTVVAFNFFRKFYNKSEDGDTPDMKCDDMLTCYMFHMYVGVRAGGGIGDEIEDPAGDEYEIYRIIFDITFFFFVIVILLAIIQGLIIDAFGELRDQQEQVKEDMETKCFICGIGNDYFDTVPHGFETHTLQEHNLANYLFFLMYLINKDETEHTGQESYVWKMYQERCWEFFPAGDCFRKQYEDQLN
T1 sequence (Q9Z2I2 whole entry partner): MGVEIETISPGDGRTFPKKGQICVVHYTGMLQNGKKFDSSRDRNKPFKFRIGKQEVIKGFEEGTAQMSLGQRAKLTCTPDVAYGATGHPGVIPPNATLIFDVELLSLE
Procedure: FIGS. 3A-3G illustrate a mouse model of heart failure that is associated with leaky hippocampal RyR2. FIG. 3A is a cryogenic electron microscopy structure of RyR2 (gray, top and side view) showing the location of the Ser2808 in the RY3&4 phosphorylation domain (magenta) and calstabin2 (cyan). RyR2 PKA phosphorylation shifted the channel toward a primed state (yellow) 50.
(§2) PTMs and functional abnormalities of neuronal RyR2 in HF hippocampal samples from MI mice were then evaluated and compared them to SHAM. Hippocampal RyR2 was immunoprecipitated and immunoblotted to detect PTMs.

[4] = system: SNARE signaling pathway; assay: immunoblots of SNAP25, VAMP8, SYT2 and CPLX3 in hippocampi; type: in vivo, mouse; conditions: hippocampi of treated MI mice
Text: FIGS. 7A-7E illustrate altered synaptic protein expression in heart failure. […] The color map represents fold change of proteins (log 2 scale). […] FIGS. 7B and 7C are immunoblots showing total expression of SNAP25, VAMP8, SYT2 and CPLX3, normalized to GAPDH in the hippocampi of controls (n=4) and individuals with HF (n=9). Individual values are shown with the mean±s.e.m. (t-test *P<0.05, control versus individuals with HF). […] Individual values are shown with the mean #s.e.m. […] Data are derived from biologically independent samples. All statistical tests were two sided.
Based on the proteome data in the setting of defective Ca^2+ regulation, four proteins were selected for further study. These four proteins were from the most enriched synaptic transmission pathways that are regulated by Ca^2+, located near the synaptic membranes, involved in learning and memory process, and involved in neurotransmission as potential downstream signals of leaky RyR2. These selections included synaptosomal-associated protein 25 (SNAP25), vesicle-associated membrane protein 8 (VAMP8), synaptogamin-2 (SYT2) and complexin3 (CPLX3). We analyzed their protein expression levels by immunoblot in individuals with HF, and in SHAM and MI mice with or without each of the aforementioned treatments. […]

[5] = system: mouse model of HF (myocardial infarction, MI); assay: MWM test (long-term spatial learning and memory) with probe trial; type: in vivo; conditions: MI mice, treated; for target crossings / time spent in the target quadrant: 60-s probe trial day 5; for target crossings: MI 2.4±0.3, SHAM 4.6±0.3; for time spent in the target quadrant: MI 17±1 s, SHAM 25±2 s; for latency to find and reach the hidden platform: day 4 training trials, MI 30±1 s, SHAM 21±2 s
Procedure: One-way analysis of variance (ANOVA) was used to compare the difference between the six groups in FIGS. 2B, 2C, 2E and 2F. Tukey's test was used for multiple comparisons; two-way ANOVA was used in FIG. 2D. […] All statistical tests were two sided with the data derived from biologically independent samples.
A MWM test was performed to assess hippocampal-dependent long-term spatial learning and memory.
A probe trial was performed on day 5 of the MWM test.

[6] = system: MI mice; assay: hippocampal FDG metabolism by microPET; type: in vivo, mouse; conditions: treated MI mice; percentage of the FDG uptake in the SHAM mice (SHAM 100±3, MI 70±3)
Text: as §1
Thereafter, [^18F]fluorodeoxyglucose (FDG) with positron emission tomography (PET) was used to measure energy consumption in neurons, which reflects neuronal communication signals and the integrative local neuronal activity. Deteriorating brain glucose metabolism measured by FDG-PET has been used as a clinical marker for Alzheimer's disease diagnosis. Thus, hippocampal FDG metabolism was evaluated in the experimental groups (FIGS. 4E and 4F).

[7] = biological target: T1, hippocampal RyR2; assay: single-channel recordings of RyR2 incorporated in planar lipid bilayers; type: in vivo; conditions: hippocampal RyR2 from treated MI mice; for RyR2 mean closed time / RyR2 mean open time: versus untreated MI
Procedure: FIG. 3E are graphs of RyR2 Po, To and Tc in the same groups as FIG. 3D. FIG. 3F is a graph of Ca^2+ leak measured in microsomes from mouse hippocampi of the same groups as FIG. 3D. […] Individual values are shown with the mean±s.e.m. […] Data are derived from biologically independent samples. All statistical tests were two sided.
as §2

[8] = system: Ca2+-dependent enzymes, Tau and amyloid beta pathway; assay: Alzheimer's disease-like signaling in hippocampal samples; type: in vivo, mouse; conditions: hippocampi of treated MI mice
Text: Abnormal Ca^2+ regulation can contribute to the activation of Ca^2+-dependent enzymes such as AMP-activated protein kinase (AMPK), cyclin-dependent kinase 5 (CDK5) and enhanced calpain activity. Activation of these enzymes in response to elevated cytosolic Ca^2+ levels are upstream signals of both pTau and amyloid deposits in Alzheimer's disease brains and could be a major factor in the CD observed in HF. […] We also observed an increase in p25 expression, the neurotoxic activator of CDK5, which plays an important role in amyloid precursor protein processing in AD.

Fc1ccc(Cl)cc1-c1nc(Nc2ccncc2)c2nccnc2n1 [SD-208]
LTP (hippocampal synaptic plasticity) [1]: prevented MI-induced LTP deficits | abnormal behaviors in open field test (time center versus periphery) and EPM test (time open-arm versus closed-arm) [2]: prevented | RyR2 nitrosylation [3]: significantly decreased | RyR2 oxidation [3]: significantly decreased | RyR2 phosphorylation [3]: significantly decreased | calstabin2 binding to RyR2 [3]: enabled rebinding of calstabin2 | expression of SNAP25, VAMP8, SYT2 and CPLX3 [4]: restored the expression of these proteins to the control levels | target crossings [5]: 4.5±0.6 | time spent in the target quadrant [5]: 27 ± 2 s | latency to find and reach the hidden platform [5]: 15 ± 3 s | hippocampal FDG metabolism [6]: 138±22 | RyR2 mean closed time [7]: increased | RyR2 mean open time [7]: decreased | changes in AMPK, GSK3B, CaMKII, Tau phosphorylation, p25, BACE1 and βCTF [8]: prevented/attenuated

CC(C)NCC(O)COc1cccc2ccccc12 (stereo not shown) [propranolol]
LTP (hippocampal synaptic plasticity) [1]: prevented MI-induced LTP deficits | abnormal behaviors in open field test (time center versus periphery) and EPM test (time open-arm versus closed-arm) [2]: prevented | RyR2 nitrosylation [3]: significantly reduced | RyR2 phosphorylation [3]: significantly reduced | calstabin2 binding to RyR2 [3]: restored calstabin2 binding | expression of SNAP25, VAMP8, SYT2 and CPLX3 [4]: restored the expression of these proteins to the control levels | target crossings [5]: 3.5±0.6 | time spent in the target quadrant [5]: 26 ± 2 s | latency to find and reach the hidden platform [5]: 17 ± 3 s | hippocampal FDG metabolism [6]: 145±26 | RyR2 mean closed time [7]: increased | RyR2 mean open time [7]: decreased | RyR2 open probability (Po) ([7]; 150 nM Ca2+ cis, MI 0.17%±0.04%): 0.018%±0.020% | changes in AMPK, GSK3B, CaMKII, Tau phosphorylation, p25, BACE1 and βCTF [8]: prevented/attenuated
